Source: patent US20100022637A1, “IDENTIFICATION OF ANTI-CANCER COMPOUNDS AND COMPOUNDS FOR TREATING HUNTINGTON'S DISEASE AND METHODS OF TREATMENT THEREOF” (THE TRUSTEES OF COLUMBIA UNIVERSITY IN THE CITY OF NEW YORK, priority 2005, published 2010)
Values after ≈ are worked out from the molar mass of the structure shown.

Experiments:
p53 = assay: Western blot of p53 (p21, MDM2) levels; format: cell-based, human; settings: RKO-E6 cells; in words
Protocol: Protein content was quantified using a BioRad protein assay reagent (BioRad, cat #500-0006). Equal amounts of protein were resolved on SDS-polyacrylamide gels. Proteins were transferred onto a PVDF membrane, blocked with 5% milk, and incubated with the appropriate primary and secondary antibodies. […] To test for equivalent loading in each lane, blots were stripped, blocked and probed with an anti-eIF-4E antibody.

RKO-E6 cells [1] = assay: Flow cytometry cell cycle distribution, RKO-E6; format: cell-based, human; settings: 24 h, propidium iodide
Protocol: RKO, RKO-E6 or HeLa cells were seeded in 20-cm dishes in 10 ml of growth medium. Cells were allowed to adhere and then treated with the selected compounds for 24 h. The treated cells were collected, washed 2× with PBS and counted. The cell pellet was re-suspended in 500 μl of ice cold PBS and 2-5 ml of cold 70% ethanol (−20° C.) were added. Cells were fixed for 1 h or overnight. 5-10 million cells were placed into a 15-ml conical tube and centrifuged at 1000 g. Cells were washed 2× with 1% calf serum in PBS. Cells were resuspended in 800 μl of 1% calf serum in PBS and 100 μl of Rnase (1 mg/ml) and 100 μl of propidium iodide (400 μg/ml) added. Cells were incubated at 37° C. for 30 min and then analyzed on flow cytometer.

RKO-E6 cells [2] = assay: Alamar Blue viability assay, RKO-E6; format: cell-based, human
Protocol: RKO colon carcinoma, human (ATCC, order # CRL-2577), RKO-E6 colon carcinoma transfected with HPV E6 inserted in pCMV.3 (ATCC, order # CRL-2578) were grown in MEM with 2 mM L-glutamine and Earle's BBS adjusted to contain 1.5 g/L NaHCO3, 0.1 mM non-essential amino acids and 1.0 mM sodium pyruvate, and supplemented with 10% fetal bovine serum, penicillin and streptomycin (pen/strep). Both cell lines were incubated at 37° C. in a humidified incubator containing 5% CO2.
The Alamar Blue assay incorporates a fluorimetric/colorimetric growth indicator that changes color in the response to chemical reduction by viable cells (Nociari 1998). Cells were seeded at a density of 3,000 cells (57 μl) per well in a 384-well black, clear-bottom plates using a syringe bulk dispenser (Zymark Sciclone ALH). Three microliters were removed from a compound daughter plate using a 384 fixed cannula head and added to the assay plate, making the final concentration 4 μg/ml. The plates were incubated for 24 h at 37° C. 10 μl of 40% Alamar Blue (Biosource Int., cat #DAL1100) solution in media was added to each well (1:10 dilution). The assay plates were incubated for 16h. Fluorescence intensity was determined using a Packard Fusion platereader with a 535 nm excitation filter and a 590 nm emission filter. The average fluorescence for the whole plate was used as a positive control. Average percentage inhibition for each well was determined using our freely available SLIMS software (Kelley et al., 2004).
The daughter plates for the 2-fold dilution series were prepared with a Zymark Sciclone ALH by diluting the replica daughter plates to obtain compound concentrations from 8 μg/ml-0.008 μg/ml (columns 8-18). Columns 1-7 were used as untreated control. RKO-E6 cells were seeded at the density of 3,000 per well in 55 μl, and 5 μl were added from the daughter plate. RKO cells were seeded at the density of 2,000 per well in 55 μl, and 5 μl were added from the daughter plate. The assay was incubated for 24 h at 37° C. 10% Alamar Blue was added to each well and the assay was incubated for 16 h (see above). Compounds for retesting were purchased from the manufacturers or from Sigma-Aldrich (see above). Stocks were prepared in DMSO at 4 mg/ml.
Each cell line (RKO, RKO-E6, HeLa and TC32) was treated with a dose combination matrix of doxorubicin and a selected hit compound. Each treatment was done in a triplicate in 384-well format. The average percent inhibition of cell proliferation, measured with Alamar Blue, was determined using the following formula: […]

[3] = tested on: PC12 expressing Q103 exon 1 htt; assay: PC12 HD model, Alamar Blue viability; format: cell-based; settings: for EC50: Rattus norvegicus, PC-12, unit inferred; for PC12 rescue: percent increase in viability in compound treated cells above DMSO treated: — = no activity in the assay (footnote n.a.)
Protocol: For enhanced stability the repeat portion consists of alternating CAG/CAA repeats. […] Mutant (mut) htt was induced by the ecdysone receptor agonist, tebufenozide.
For the PC12 assay, 7500 cells/well were plated in 384-well plates in 57 μl of PC12 medium with tebufenozide (1 μM). Compounds (3 μl) from daughter plates were added to the cells and incubated at 37° C. After 48 h, 20 μl of 40% Alamar Blue (Biosource, CA) in PC12 media was added per well and cells incubated for 12 h at 37° C. […] Fluorescence intensity was determined using a Packard Fusion plate reader with an excitation filter centered on 535 nm and an emission filter centered on 590 nm. Average percentage inhibition at each concentration was calculated.

N548 mutant cells = assay: in vitro; settings: for selectivity profile of cell death rescue in panel of htt expressing cell lines: N63, N548, FL htt cell lines, in words; for maximal fold induction: 72 h, read-out: N548 Mut: Max, maximum rescue expressed as fold over DMSO treated N548 mutant cells; for EC50: read-out: EC50 based on activity in N548 mutant cells
Protocol: Embryonic rat striatal neurons were conditionally immortalized by stably transfecting a temperature-sensitive SV40 large T-antigen (T-ag) to generate the ST14A cell line. ST14A cells proliferate at the permissive temperature (33° C.), but stop dividing at 39° C., as a result of T-ag degradation. […] As htt protein context modulates polyQ toxicity, testing these different length htt proteins could provide insight into the basis for context dependence.
ST14A Assay System: Calcein acetoxylmethyl ester (AM) (Molecular Probes, Eugene, Oreg.) is a non-fluorescent, membrane-permeable compound that is cleaved by intracellular esterases, which subsequently forms the anionic, fluorescent compound, calcein, that cannot permeate the cell membrane. […] A fluorescence viability assay, that is based on conversion of a non-fluorescent substrate (calcein AM) to a fluorescent product by nonspecific esterases in live cells, was employed to monitor cell death in wild type (wt) ST14A-Htt and mut ST14A-Htt cell lines. Cell death is indicated by a decrease in fluorescence. […] 3 μl of each compound was transferred from daughter plates to triplicate assay plates for a final assay concentration of 4 μg/ml in 0.1% DMSO (10 μM for NINDS compounds). Cells were incubated at 33° C. for 3 h to enhance attachment and then shifted to 39° C. (with 5% CO2). After 3 days (d), cells were washed 10 times with phosphate buffered saline (PBS) leaving 20 μl residual PBS per well, and 20 μl of 2 μg/ml calcein AM (Molecular probes) in PBS was added per well. […] The fluorescence intensity in each well was normalized to the median of each plate. The median normalized fluorescence of each triplicate assay wells was determined. A well with more than 50% increase in intensity above the median signal intensity was considered a “hit.”
Assay Development: An assay was developed for detecting mutant htt-induced cell death in ST14A cells in a 384-well plate format. A calcein AM-based method was used to detect cell viability, and optimized the cell number and time course for this method. […] A cell number titration was performed to determine the cell density at which calcein fluorescence was not saturated and the coefficient of variation (CV) was low (FIG. 14A-B). A low CV is critical for a high-throughput assay as it decreases noise and enhances sensitivity. […] Next, the kinetics of the fluorescence signal were determined.
Next, the serum concentrations that induce cell death in these cells were determined. Cells were seeded in decreasing serum (IFS) concentrations (5 to 0%), and cell viability was assayed after 3 d using the calcein AM assay (FIG. 14E).
A Z′ value of greater than 0 is required for a usable assay, with a maximum value of 1.0 for an ideal assay. For the assay, calcein fluorescence was used on the day of seeding to represent 100% rescue. The difference in calcein fluorescence signal on the day of seeding and after different number of days under serum deprivation was determined and used to calculate the Z′ factor. […] About 47,000 compounds were assayed in a 384-well plate format in triplicate to enhance the reliability of the primary screen.

[4] = tested on: ASH neurons in C. elegans HD model (pqe-1; Htn-Q150); assay: Neuronal survival assay, worm HD model; format: in vivo; settings: 2 d after treatment, revertin-2 0.8 mg/ml, revertin-1a 1 mg/ml, p<0.02
Protocol: One hundred synchronized L1 worms (pqe-1; Htn-Q150) (Faber P., et al, Proc Natl Acad Sci 99: 17131-6; Wood W., Cold Spring Harbor Laboratory, NY) were added to 5 wells (20 worms/well). Each well contained 50 μl food suspension (6.6 O.D.) pre-mixed with compound or DMSO in a 96-well plate. Worms were incubated for 2 d at 15° C., washed in S-media, immobilized with 5 mM sodium azide on a microscopic glass slide and GFP fluorescence was examined using an Axoplan2 fluorescence microscope (ex 485/em 535 nm). Live (GFP positive) Anterior Sensory Horn (ASH) neurons were counted in at least 50 worms (100 neurons). Data were subjected to a two-tailed Student t-test.
Worm HD Model. A C. elegans model of HD was optimized for testing compounds. In this model, larval ASH neurons that express mutant htt in a poly Q enhancer-1 mutant background, die over 2-3 days after hatching (Faber P, et al, Proc Natl Acad Sci USA 2002, 99: 17131-6). Neuronal death was monitored by loss of GFP expression in ASH neurons. Since the effective concentration of compounds in worms can vary widely from those in cell culture, concentrations to test in worms were based on an assay (FIG. 19). The effective concentrations in worms for all compounds were determined and tested for rescue of neuronal cell death. […] Thus, the ST14A cell culture model can be used to identify compounds that are active in in vivo models of HD. […] Compounds in this series were active in both the worm and PC12 HD models (FIG. 18B-C). The revertin-1 series has certain features making it an attractive candidate for lead development including different analogues that are active, a low molecular weight (˜400) making it likely that it can cross the blood brain barrier; furthermore, it is synthetically tractable.

[5] = tested on: microtubules in N548 mutant cells; assay: β-tubulin indirect immunofluorescence; format: cell-based, rat; settings: colchicine 400 nM, revertin-22 4 μg/ml, 8 h
Protocol: Cells were grown on glass coverslips in 10% IFS-containing media, treated with compounds and fixed in acetone/methanol (1:1 vol/vol). β-tubulin was detected using a mouse monoclonal antibody (clone TUB2.1, Sigma-Aldrich) followed by a rhodamine-conjugated goat anti-mouse antibody (Jackson Laboratory; Bar Harbor, Me.). Cells were viewed under a fluorescent microscope (ex 530/em 595 nm).

Row | EC50 (N548 mutant cells; Rattus norvegicus) [µg/mL] | Compound | p53, p21, MDM2 levels (p53) | selectivity profile of cell death rescue in panel of htt expressing cell lines (N548 mutant cells) | maximal fold induction (N548 mutant cells; Rattus norvegicus) | microtubule disruption [5] | other results
1 | – | CC(C)(C)CC(C)(C)c1ccc(OCCOCC[N+](C)(C)Cc2ccccc2)cc1 [benzethonium chloride] | did not upregulate p53, p21, or caspase 3 | – | – | – | cell cycle effect in RKO-E6 cells (RKO-E6 cells [1]): did not induce cell cycle arrest
2 | – | COc1cccc2c1C(=O)c1c(O)c3c(c(O)c1C2=O)C[C@@](O)(C(=O)CO)C[C@@H]3O[C@H]1C[C@H](N)[C@H](O)[C@H](C)O1 [doxorubicin] | caused p53 to accumulate | – | – | – | resistance of RKO-E6 cells compared to RKO cells (RKO-E6 cells [2]): two-fold to four-fold more resistant; inhibition at 0.5 µg/mL (RKO-E6 cells [2]; Homo sapiens, RKOE6, 0.5 μg/ml alone, 24 h, read-out: growth inhibition by drug alone): 20%
3 | 4 | CCCc1cc(OC(=O)c2ccccc2F)n(-c2cccc(F)c2)n1 [revertin-1a] | – | selectively rescued cell death in all mutant htt-expressing cell lines | 2.5 | – | EC50 [3]: 50 µg/mL (≈ 146 µM); PC12 rescue: percent increase in viability in compound treated cells above DMSO treated [3]: 21%; ASH neuronal cell survival [4]: enhance ASH neuronal cell survival
4 | 1 | COc1cc2c(cc1OC)C(C)N(C(=O)NCc1ccccc1)CC2 (centres unmarked) [revertin-22] | – | shared the selectivity profile with MTIs | 2.5 | depolymerize microtubules | –
5 | 2 | CC1CN(C(C)c2nc3ccccc3c(=O)n2-c2ccc(F)cc2)CCC1C(=O)C1CC1 (centres unmarked) [revertin-23] | – | shared the selectivity profile with MTIs | 2.5 | disrupt microtubules | –
6 | – | Colchicine [reference compound] | – | rescued cell death in three htt expressing cell lines | – | depolymerize microtubules | N548 Mut: Max, maximum rescue expressed as fold over DMSO treated N548 mutant cells (N548 mutant cells; 0.5% IFS, 39° C., 3 d): 2.5 fold; EC50 (N548 mutant cells): 40 nM
7 | – | benzalkonium chloride | did not upregulate p53, p21, or caspase 3 | – | – | – | cell cycle effect in RKO-E6 cells (RKO-E6 cells [1]): did not induce cell cycle arrest; effect on doxorubicin's lethality in RKO-E6 cells (RKO-E6 cells [2]; co-treatment with 0.5 μg/ml doxorubicin, 24 h, in words): selectively increased doxorubicin's lethality; effect on camptothecin's lethality (RKO-E6 cells [2]; co-treatment with camptothecin, in words): did not synergize with camptothecin; induction of apoptosis (RKO-E6 cells [2]; in the absence of doxorubicin): did not induce apoptosis

Row | Compound | EC50 (N548 mutant cells; Rattus norvegicus) [µg/mL] | p53, p21, MDM2 levels (p53) | selectivity profile of cell death rescue in panel of htt expressing cell lines (N548 mutant cells) | maximal fold induction (N548 mutant cells; Rattus norvegicus) | microtubule disruption [5] | other results
8 | COc1c2c(cc3c1C(CC(=O)/C=C/c1ccco1)[N+](C)(C)CC3)OCO2 (centres unmarked) [revertin-2] | 3 | – | protective in all three mutant htt versions | 4 | – | EC50 [3]: 13 µg/mL; PC12 rescue: percent increase in viability in compound treated cells above DMSO treated [3]: 34%; ASH neuronal cell survival [4]: enhance ASH neuronal cell survival; ASH neuronal cell survival ([4]; listed as rev-2): rescued ASH neuronal cell death
